Values quoted from earlier work in patent US20220226447A1, “ANTI-ABETA VACCINE THERAPY” (AC Immune SA, priority 2019, published 2022).

Details: human, in vivo

AN1792: full-length Aβ1-42 vaccine
antibody response: induced an antibody response | rate of cognitive decline versus placebo-treated patients: slower rate of cognitive decline | treated patients who developed meningoencephalitis: 6%
